# Experimental data taken from patent publication US9545386B2, “Methods of treating infectious diseases” (SLIPPERY ROCK UNIVERSITY FOUNDATION, INC., priority 2007, dated 2017).
# Assays:
# Format in all cases: cell-based
# [1] = tested on: Trypanosoma conorhini trypomastigotes; assay: In vitro antitrypanosomal bioassay, trypomastigote counts (Probit LC50/LC95); conditions: T. conorhini; for 24 hr LC95 ± 95% confidence intervals: 24 hr in vitro
# Description: (§1) In this study, 75 μl of Locke's nematode saline (L.N.S.) solution with approximately 1.0×10^5 trypomastigotes/ml of each organism were placed in 15 wells of a cell culture plate. For T. mega, T. conorhini and T. avium, stock concentrations of eryngial (1, 2, 3 and 4 mg/ml) with 0.04% (w/v) Triton X-100 were prepared in L.N.S. Triton X-100 acted as an emulsifier for eryngial. Triplicate samples of each eryngial concentration were prepared by adding 75 μl of the stock to the wells with trypomastigotes of each species. The number of trypanosomes in each well therefore approximated 5×10^4/ml, while final concentrations of eryngial in the wells were 0.5, 1.0, 1.5, and 2.0 mg/ml, respectively. Each sample also had 0.02% Trition X-100. The control samples had no eryngial. The number of trypomastigotes that were present in 20 μl sub-samples of each well was determined using a hemacytometer at 0, 24 and 48 hr. A count of the trypanosomes in each grid was recorded and the average number of organisms per milliliter was determined. The above procedure was repeated to determine the effect of eryngial on T. rangeli. However, the final concentration of eryngial, the test compound, ranged from 0.15 to 0.9 mg/ml.
# [2] = tested on: Trypanosoma mega trypomastigotes; assay: as above; conditions: T. mega; for 24 hr LC95 ± 95% confidence intervals: 24 hr in vitro
# Description: as §1
# [3] = tested on: Trypanosoma rangeli trypomastigotes; assay: as above; conditions: T. rangeli; for 24 hr LC95 ± 95% confidence intervals: 24 hr in vitro, 0.02% Triton X-100; for 48 hr LC95 ± 95% confidence intervals: 48 hr in vitro
# Description: as §1
# [4] = tested on: Trypanosoma avium trypomastigotes; assay: as above; conditions: T. avium
# Description: as §1
# [5] = tested on: Strongyloides stercoralis infective larvae; assay: In vitro bioassay of infective larvae, immobilization and lethal doses (eosin, Probit); conditions: for 24 hr ID50 ± 95% confidence intervals / 48 hr ID50 ± 95% confidence intervals: immobilize 50%; for 24 hr ID50 ± 95% confidence intervals / 24 hr ID90 ± 95% confidence intervals / 24 hr LD50 ± 95% confidence intervals / 24 hr LD90 ± 95% confidence intervals: 24 hr in vitro; for 48 hr ID50 ± 95% confidence intervals / 48 hr ID90 ± 95% confidence intervals / 48 hr LD50 ± 95% confidence intervals / 48 hr LD90 ± 95% confidence intervals: 48 hr in vitro; for 24 hr ID90 ± 95% confidence intervals / 48 hr ID90 ± 95% confidence intervals: immobilize 90%; for 24 hr LD50 ± 95% confidence intervals / 48 hr LD50 ± 95% confidence intervals: kill 50%; for 24 hr LD90 ± 95% confidence intervals / 48 hr LD90 ± 95% confidence intervals: kill 90%
# Description: (§2) Strongyloides stercoralis infective larvae were harvested from charcoal coprocultures in nematode saline solution. The larvae were supplied by the Parasitology Laboratory, Department of Pathobiology, University of Pennsylvania. The strain of larvae was a human strain of the parasitic nematode that had been maintained for over ten years in canines by daily prednisolone treatment (2 mg/kg per os, once daily. Parastrongyloides trichosuri and Ancylostoma caninum infective larvae were also supplied by the same source as for S. stercoralis. Haemonchus contortus infective larvae were harvested from charcoal coprocultures in nematode saline solution prepared from infected sheep feces obtained from Merck Parasites Laboratory.
# (§3) The 24 hr 50% and 90% immobilization doses (ID50 and ID90), and 50% and 90% lethal doses (LD50 and LD90) of eryngial (mg/ml) were investigated in vitro using infective larvae of all four parasitic nematodes. Each species was exposed to a range of eryngial dilutions by adding known volumes of a homogeneous ‘wormy’ solution (infective larvae in nematode saline solution) to known volumes of an eryngial stock suspension (10 mg/ml of nematode saline solution). Each dilution, including the control (0 mg/ml eryngial), was prepared in triplicate and also contained eosin (0.01%, w/v), which was used as an indicator of mortality, and Triton X-100 (1.0%, v/v).
# (§4) Using S. stercoralis, P. trichosuri, H. contortus and A. caninum infective larvae, eryngial dilutions, excluding the controls, ranged from 0.05 to 1.15 mg/ml; 0.01 to 1.0 mg/ml; 0.5 to 2.0 mg/ml; and 0.8 to 3.0 mg/ml, respectively. Sub-sample (10 μl) counts of larvae that were mobile, immobile but not stained and stained, were done at the start of each bioassay and at 24 hr intervals for two days. Each sub-sample contained approximately 50 infective larvae.
# (§5) The 48-hr immobilization doses (ID50 and ID90) and lethal doses (LD50 and LD90) of eryngial and ivermectin also were investigated, using S. stercoralis and H. contortus infective larvae. Each bioassay was conducted as described hereinabove. Using S. stercoralis and H. contortus infective larvae, ivermectin dilutions (not including the controls) ranged from 0.03 to 0.3 mg/ml and from 0.009 to 0.1 mg/ml, respectively.
# (§6) Probit analysis was used to determine 24 hr and 48 hr immobilization and lethal doses for eryngial and ivermectin, respectively.
# [6] = tested on: Haemonchus contortus infective larvae; assay: as above; conditions: for 24 hr ID50 ± 95% confidence intervals / 48 hr ID50 ± 95% confidence intervals: immobilize 50%; for 24 hr ID50 ± 95% confidence intervals / 24 hr ID90 ± 95% confidence intervals / 24 hr LD50 ± 95% confidence intervals / 24 hr LD90 ± 95% confidence intervals: 24 hr in vitro; for 48 hr ID50 ± 95% confidence intervals / 48 hr ID90 ± 95% confidence intervals / 48 hr LD50 ± 95% confidence intervals / 48 hr LD90 ± 95% confidence intervals: 48 hr in vitro; for 24 hr ID90 ± 95% confidence intervals / 48 hr ID90 ± 95% confidence intervals: immobilize 90%; for 24 hr LD50 ± 95% confidence intervals / 48 hr LD50 ± 95% confidence intervals: kill 50%; for 24 hr LD90 ± 95% confidence intervals / 48 hr LD90 ± 95% confidence intervals: kill 90%
# Description: as §2, §3, §4, §5, §6
# [7] = 48 hr in vitro, listed as eryngial
# [8] = S. stercoralis infective larvae
# [9] = S. stercoralis infective larvae, listed as eryngial
# [10] = S. stercoralis, eryngial vs ivermectin
# [11] = H. contortus infective larvae, 48 hr, eryngial vs ivermectin
# [12] = H. contortus infective larvae, listed as eryngial
smiles,measurement,setting,value
"CCCCCCCCC/C=C/C=O [Eryngial, trans-2-dodecenal]",24 hr LC95 ± 95% confidence intervals,[1],2.91 (2.22-4.69) mg/ml
same,24 hr LC95 ± 95% confidence intervals,[1]; listed as eryngial,2.91 mg/mL
same,48 hr LC50 ± 95% confidence intervals,[1]; 48 hr in vitro,0.68 (0.62-0.75) mg/ml
same,48 hr LC95 ± 95% confidence intervals,[1]; 48 hr in vitro,1.02 (0.91-1.20) mg/ml
same,48 hr LC95 ± 95% confidence intervals,[1]; [7],1.14 mg/mL
same,24 hr LC95 ± 95% confidence intervals,[2],2.85 (2.20-4.40) mg/ml
same,24 hr LC95 ± 95% confidence intervals,[2]; listed as eryngial,2.85 mg/mL
same,48 hr LC50 ± 95% confidence intervals,[2]; 48 hr in vitro,0.50 (0.39-0.58) mg/ml
same,48 hr LC95 ± 95% confidence intervals,[2]; 48 hr in vitro,1.14 (0.95-1.56) mg/ml
same,48 hr LC95 ± 95% confidence intervals,[2]; [7],2.31 mg/mL
same,24 hr LC95 ± 95% confidence intervals,[3],0.45 (0.38-0.55) mg/ml
same,24 hr LC95 ± 95% confidence intervals,[3]; listed as eryngial,0.45 mg/mL
same,48 hr LC95 ± 95% confidence intervals,[3],0.31 (0.26-0.43) mg/ml
same,48 hr LC95 ± 95% confidence intervals,[3]; listed as eryngial,0.31 mg/mL
same,24 hr LC50 ± 95% confidence intervals,[4]; 24 hr in vitro,1.19 (0.96-1.40) mg/ml
same,24 hr LC95 ± 95% confidence intervals,[4]; 24 hr in vitro,3.12 (2.57-4.16) mg/ml
same,24 hr LC95 ± 95% confidence intervals,"[4]; 24 hr in vitro, listed as eryngial",3.12 mg/mL
same,48 hr LC50 ± 95% confidence intervals,[4]; 48 hr in vitro,0.76 (0.63-0.87) mg/ml
same,48 hr LC95 ± 95% confidence intervals,[4]; 48 hr in vitro,2.31 (1.87-3.26) mg/ml
same,48 hr LC95 ± 95% confidence intervals,[4]; [7],1.02 mg/mL
same,decrease in the 50% immobilization dose,"[5]; 24 hr ID50, S. stercoralis compared with A. caninum",9.4 fold
same,decrease in the 50% immobilization dose,"[5]; 24 hr ID50, S. stercoralis compared with H. contortus",2.3 fold
same,less sensitive to eryngial than P. trichosuri,"[5]; 24 hr ID50, S. stercoralis relative to P. trichosuri",4.5 fold
same,increased sensitivity to eryngial (90% immobilization),"[5]; 24 hr ID90, S. stercoralis over A. caninum",10.7 fold
same,increase in sensitivity to eryngial (50% mortality doses),"[5]; 24 hr LD50, S. stercoralis than A. caninum",7.2 fold
same,increase in sensitivity to eryngial (50% mortality doses),"[5]; 24 hr LD50, S. stercoralis than H. contortus",21.1 fold
same,increased sensitivity to eryngial (90% mortality doses),"[5]; 24 hr LD90, S. stercoralis over A. caninum",8.2 fold
same,increased sensitivity to eryngial (90% mortality doses),"[5]; 24 hr LD90, S. stercoralis over H. contortus",19.3
same,times more effective than ivermectin (48 hr ID90),"[5]; S. stercoralis L3 larvae, eryngial vs ivermectin",3.9 times
same,times more potent than ivermectin (48 hr ID50),"[5]; S. stercoralis infective larvae, eryngial vs ivermectin",2.5 times
same,24 hr ID50 ± 95% confidence intervals,[5]; [8],0.058 (0.054-0.061) mg/ml
same,24 hr ID50 ± 95% confidence intervals,[5]; [9],0.058 mg/mL
same,48 hr ID50 ± 95% confidence intervals,[5]; [8],0.054 (0.047-0.061) mg/ml
same,48 hr ID50 ± 95% confidence intervals,[5]; [9],0.054 mg/mL
same,24 hr ID90 ± 95% confidence intervals,[5]; [8],0.081 (0.076-0.088) mg/ml
same,24 hr ID90 ± 95% confidence intervals,[5]; [9],0.081 mg/mL
same,48 hr ID90 ± 95% confidence intervals,[5]; [8],0.077 (0.066-0.101) mg/ml
same,48 hr ID90 ± 95% confidence intervals,[5]; [9],0.077 mg/mL
same,24 hr LD50 ± 95% confidence intervals,[5]; [8],0.085 (0.073-0.102) mg/ml
same,24 hr LD50 ± 95% confidence intervals,[5]; [9],0.085 mg/mL
same,48 hr LD50 ± 95% confidence intervals,[5]; [8],0.069 (0.058-0.085) mg/ml
same,48 hr LD50 ± 95% confidence intervals,[5]; [9],0.069 mg/mL
same,24 hr LD90 ± 95% confidence intervals,[5]; [8],0.143 (0.115-0.245) mg/ml
same,24 hr LD90 ± 95% confidence intervals,[5]; [9],0.143 mg/mL
same,48 hr LD90 ± 95% confidence intervals,[5]; [8],0.105 (0.085-0.174) mg/ml
same,48 hr LD90 ± 95% confidence intervals,[5]; [9],0.105 mg/mL
same,times more effective than ivermectin (48 hr LD50),[5]; [10],4.4 times
same,times more potent than ivermectin (48 hr LD90),[5]; [10],9.9 times
same,increase in the dose required to immobilize 50%,"[6]; 24 hr ID50, H. contortus relative to P. trichosuri",10.2 fold
same,times more effective than ivermectin at eliciting 90% mortality,[6]; [11],2.9 times
same,times more potent at killing 50% than ivermectin,[6]; [11],3.7 times
same,24 hr ID50 ± 95% confidence intervals,[6]; H. contortus infective larvae,0.132 (0.078-0.186) mg/ml
same,24 hr ID50 ± 95% confidence intervals,[6]; [12],0.132 mg/mL
same,48 hr ID50 ± 95% confidence intervals,[6]; H. contortus infective larvae,0.313 (0.143-0.453) mg/ml
same,48 hr ID50 ± 95% confidence intervals,[6]; [12],0.313 mg/mL
same,24 hr ID90 ± 95% confidence intervals,[6]; H. contortus infective larvae,0.782 (0.641-0.998) mg/ml
same,24 hr ID90 ± 95% confidence intervals,[6]; [12],0.782 mg/mL
same,48 hr ID90 ± 95% confidence intervals,[6]; H. contortus infective larvae,0.761 (0.530-1.488) mg/ml
same,48 hr ID90 ± 95% confidence intervals,[6]; [12],0.761 mg/mL
same,24 hr LD50 ± 95% confidence intervals,[6]; H. contortus infective larvae,1.793 (1.516-2.558) mg/ml
same,24 hr LD50 ± 95% confidence intervals,[6]; [12],1.793 mg/mL
same,48 hr LD50 ± 95% confidence intervals,[6]; H. contortus infective larvae,1.361 (1.284-1.449) mg/ml
same,48 hr LD50 ± 95% confidence intervals,[6]; [12],1.361 mg/mL
same,24 hr LD90 ± 95% confidence intervals,[6]; H. contortus infective larvae,2.765 (2.010-5.915) mg/ml
same,24 hr LD90 ± 95% confidence intervals,[6]; [12],2.765 mg/mL
same,48 hr LD90 ± 95% confidence intervals,[6]; H. contortus infective larvae,2.360 (2.109-2.768) mg/ml
same,48 hr LD90 ± 95% confidence intervals,[6]; [12],2.360 mg/mL
